Reference: patent publication US9365851B2, “Spalt-like transcription factor 4 (SALL4) and uses thereof” (National University of Singapore, priority 2011, dated 2016)
“Also recorded” adds a separate entry of the source.

Experiments:
SALL4 = SALL4 knock-down in HCC cells (qPCR, Western blot); format: cell-based, human
Method: Lentiviruses expressing scrambled shRNA or E5 SALL4-specific shRNA were packaged by treansfection of 293T cells with lentiviral vector pLL3.7. 24 hours and 48 hours post-transfection, viruses were harvested and filtered through […]. Virus titers were determined by FACS analysis of GFP expression using infected 3T3 cells by the conventional ways. MOI 0.5 to 5 was used dependent on individual cell lines. Transduction of HCC cells were carried out using spinoculation protocol, virus was added to the trypsinized cells and let settle for an hour at 37° C. in a humidified atmostphere of 5% CO2, centrifuged at 2,200 RPM at 37° C. for 90 mins and incubated overnight at 37° C. in a humidified atmostphere of 5% CO2. Transduction efficiency was determined by GFP expression by FACS analysis.
After successfully establishing the expression pattern of SALL4 in human livers at various stages and the clinical significance of SALL4 in HCC, the functional roles of SALL4 in HCC was investigated. […] The efficiency of virus transduction was assessed by FACS analysis of GFP expression. […]
Next, the potential of SALL4 as a molecular target for therapeutic intervention in HCC was examined by performing loss-of-function studies. […] The efficiency of virus transduction was assessed by the percentage of cells expressing GFP by flow cytometry. […]

HuH-7 and SNU-398 cells = assay: In vivo tumorigenicity of shRNA-transduced HCC cells in NOD/SCID mice
Method: 4- to 8-week-old NOD/SIC mice were used. Animal work was done at the Childrens Hospital Boston (CHB) with approval from IACUC. 10×10^6 SNU-398 or 6×10^6 HuH-7 cells infected with viruses expressing scrambled shRNA or E5 shRNA specific for SALL4 (total 300 μL of cell suspension and matrigel in 1:1 ratio) were injected subcutaneously (s.c.) into NOD/SCID mice on the right flank. After injection, mice were examined and tumor volumes were measured at various time points. Tumor volume=π/6×larger diameter×(smaller diameter)^2. Tumor samples were processed for routine histology examination.
A decrease in tumorigenicity in SALL4-knockdown HCC cells was anticipated and an in vivo transplantation assay was carried out to confirm this hypothesis. HuH-7, another HCC cell line with considerably high endogenous SALL4 expression, and SNU-398 cells were transduced with lentivirus expressing either E5 shRNA or control scrambled shRNA and transplanted subcutaneously into right flank of NOD/SCID mice.
To examine if SALL4 has a role in maintaining tumorigenicity of HCC cells, in vivo xenotransplantation assays were carried out. HuH-7 and SNU-398 cells were transduced with lentviruses expressing either shSALL4 1 or Scr shRNA 1 and transplanted subcutaneously into the flanks of NOD/SCID mice.

PTEN/AKT pathway [1] = assay: PTEN/AKT pathway expression in SNU-387 cells after treatment (Western blot); format: cell-based, human; details: SNU-387, Western blot
Source text: The induction of Pten expression was not affected when wt peptide was administrated together with a Pten inhibitor. AKT, a molecule with levels of phosphorylation controlled by the expression of Pten was affected by the wt peptide addition accordingly. […] The effect of wt peptide on pAKT was abrogated by the Pten inhibitor. […] In contrast, the protein expression level of endogenous Pten was very high in the none-SALL4 expressing SNU387 cells.
To confirm the involvement of PTEN tumor suppressor in SALL4 peptide-induced reduction of number of viable HCC cells, PTEN expression was analyzed by western blot upon drug treatment. […] Whether the increase in PTEN expression upon SALL4 peptide treatment has an effect in PI3K signalling by dephosphorylating AKT was examined.
To confirm the involvement of the PTEN tumor suppressor in the SALL4 peptide-induced reduction of HCC cell viability, PTEN expression was analyzed by western blot upon drug treatment. […] If the increase in PTEN expression has an effect in PI3K signaling was next examined. PTEN functions as a phosphatase to dephosphorylate AKT.

PTEN/AKT pathway [2] = assay: PTEN/AKT pathway expression in KBM5 cells (Western blot); format: cell-based
Source text: To further evaluate the specificity of the SALL4/PTEN pathway, next investigated was whether wild type peptide treatment could affect the expression of PTEN and its downstream target, phosphorylated AKT (pAKT).

Row | Substance | SALL4 isoforms mRNA level after knockdown (SALL4; SNU-398, four days post-transduction) [%] | SALL4 protein level after knockdown (SALL4; Western blot) | mice with tumor formation (HuH-7 and SNU-398 cells; HuH-7, subcutaneous, n=3) | ability of cells to propagate tumors (HuH-7 and SNU-398 cells; HuH-7 and SNU-398) | survival of mice (HuH-7 and SNU-398 cells; HuH-7 and SNU-398, Kaplan-Meier) | PTEN protein expression (PTEN/AKT pathway [1]) | phosphorylated AKT (pAKT) level (PTEN/AKT pathway [1]) | PTEN protein expression (PTEN/AKT pathway [1]; listed as SALL4 peptide) | levels of PTEN and pAKT (PTEN/AKT pathway [2])
1 | CTATTTAGCCAAAGGCAAA (short hairpin RNA, chemistry and delivery not given here, further chemistry not given here) [E5 shRNA] | 70 | almost all SALL4 proteins were gone | one out of the three | greatly reduced the ability of these cells to propagate tumors | significant survival advantage |  |  |  | 
2 | H-MSRRKQAKPQHI-OH [wt peptide, MSRRKQAKPQHI] |  |  |  |  |  | did not seem to change the expression of Pten significantly | little or no effect | slight increase in PTEN expression; also recorded: negligible effect on PTEN expression | little or no effect
